In patent US20110086759A1, “CHEMICAL COMPOUNDS” (SYNGENTA CROP PROTECTION, INC., priority 2007, published 2011):

Key:
Format in all cases: in vivo
[1] = tested on: Alopecurus myosuroides (ALOMY); test: Post-emergence biological efficacy, glasshouse pot test; conditions: 312 h, Rate 1,000 g/ha, post-emergence spray, evaluated after 13 days (100=total damage to plant; 0=no damage to plant), read-out: Percentage damage caused to weed species, post-emergence, ALOMY
Method in brief: (§1)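 Scored 13 days after spraying on a 0 (no damage) to 100 (total damage) scale. Treatment was a post-emergence spray at 1000 or 250 g/ha, from acetone/water 50:50 plus 0.5% Tween 20, onto 8-day-old plants in soil pots. Growth at 24/16° C, 14 h photoperiod, 65% humidity, watered twice daily.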

Setaria faberi (SETFA) [2] = test: as above; conditions: 312 h, Rate 1,000 g/ha, post-emergence spray, evaluated after 13 days (100=total damage to plant; 0=no damage to plant), read-out: Percentage damage caused to weed species, post-emergence, SETFA
Method in brief: as §1

[3] = tested on: Ipomea hederaceae (IPOHE); test: as above; conditions: Ipomoea hederacea, 312 h; Rate 1,000 g/ha; post-emergence spray; evaluated after 13 days (100=total damage to plant; 0=no damage to plant); read-out: Percentage damage caused to weed species, post-emergence, IPOHE
Method in brief: as §1

[4] = tested on: Echinochloa crus-galli (ECHCG); test: as above; conditions: 312 h, Rate 1,000 g/ha, post-emergence spray, evaluated after 13 days (100=total damage to plant; 0=no damage to plant), read-out: Percentage damage caused to weed species, post-emergence, ECHCG
Method in brief: as §1

Solanum nigrum (SOLNI) [5] = test: as above; conditions: 312 h, Rate 1,000 g/ha, post-emergence spray, evaluated after 13 days (100=total damage to plant; 0=no damage to plant), read-out: Percentage damage caused to weed species, post-emergence, SOLNI
Method in brief: as §1

[6] = tested on: Amaranthus retoflexus (AMARE); test: as above; conditions: Amaranthus retroflexus, 312 h; Rate 1,000 g/ha; post-emergence spray; evaluated after 13 days (100=total damage to plant; 0=no damage to plant); read-out: Percentage damage caused to weed species, post-emergence, AMARE
Method in brief: as §1

[7] = tested on: Alopecurus myosuroides (ALOMY); test: Pre-emergence biological efficacy, glasshouse pot test; conditions: 312 h, pre-emergence, rate 1,000 g/ha, evaluated after 13 days (100=total damage to plant; 0=no damage), read-out: Percentage damage caused to weed species, ALOMY
Method in brief: (§2)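 Damage was rated on a 0–100 scale 13 days after treatment, with plants kept at 24/16° C, 14 h light and 65% humidity. The pre-emergence spray, at 1000 or 250 g/ha in acetone/water 50:50 with 0.5% Tween 20, was applied one day after sowing.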

Setaria faberi (SETFA) [8] = test: as above; conditions: 312 h, pre-emergence, rate 1,000 g/ha, evaluated after 13 days (100=total damage to plant; 0=no damage), read-out: Percentage damage caused to weed species, SETFA
Method in brief: as §2

[9] = tested on: Ipomea hederaceae (IPOHE); test: as above; conditions: Ipomoea hederacea, 312 h; pre-emergence, rate 1,000 g/ha, evaluated after 13 days (100=total damage to plant; 0=no damage); read-out: Percentage damage caused to weed species, IPOHE
Method in brief: as §2

[10] = tested on: Echinochloa crus-galli (ECHCG); test: as above; conditions: 312 h, pre-emergence, rate 1,000 g/ha, evaluated after 13 days (100=total damage to plant; 0=no damage), read-out: Percentage damage caused to weed species, ECHCG
Method in brief: as §2

Solanum nigrum (SOLNI) [11] = test: as above; conditions: 312 h, pre-emergence, rate 1,000 g/ha, evaluated after 13 days (100=total damage to plant; 0=no damage), read-out: Percentage damage caused to weed species, SOLNI
Method in brief: as §2

[12] = tested on: Amaranthus retoflexus (AMARE); test: as above; conditions: Amaranthus retroflexus, 312 h; pre-emergence, rate 1,000 g/ha, evaluated after 13 days (100=total damage to plant; 0=no damage); read-out: Percentage damage caused to weed species, AMARE
Method in brief: as §2

Compound	pest or weed control at 1000 g/ha [1]	pest or weed control at 1000 g/ha (Setaria faberi (SETFA) [2])	pest or weed control at 1000 g/ha [3]	pest or weed control at 1000 g/ha [4]	pest or weed control at 1000 g/ha (Solanum nigrum (SOLNI) [5])	pest or weed control at 1000 g/ha [6]	pest or weed control at 1000 g/ha [7]	pest or weed control at 1000 g/ha (Setaria faberi (SETFA) [8])	pest or weed control at 1000 g/ha [9]	pest or weed control at 1000 g/ha [10]	pest or weed control at 1000 g/ha (Solanum nigrum (SOLNI) [11])	pest or weed control at 1000 g/ha [12]
COC(=O)c1nc(C2CC2)nc(N(C)CC2OCCO2)c1Cl [Compound 5-54, 5-Chloro-2-cyclopropyl-4-[N-(1,3-dioxolan-2-yl)methyl-N-methyl-amino]-6-methoxycarbonyl-pyrimidine]	0%	30%	60%	0%	30%	80%	0%	0%	30%	0%	0%	50%
COC(=O)c1nc(C2CC2)nc(N(C)Cc2ccccc2Cl)c1Cl [Compound 5-61, 5-Chloro-4-[N-(2-chlorophenyl-methyl)-N-methyl-amino]-2-cyclopropyl-6-methoxycarbonyl-pyrimidine]	20%	80%	90%	80%	90%	100%	30%	40%	70%	40%	20%	70%
COC(=O)c1nc(C2CC2)nc(N(C)Cc2cccc(Cl)c2)c1Cl [Compound 5-62, 5-Chloro-4-[N-(3-chlorophenyl-methyl)-N-methyl-amino]-2-cyclo-propyl-6-methoxy-carbonylpyrimidine]	20%	40%	90%	30%	80%	100%	0%	10%	60%	0%	20%	100%
COC(=O)c1nc(C2CC2)nc(N(C)Cc2ccc(Cl)cc2)c1Cl [Compound 5-63, 5-Chloro-4-[N-(4-chlorophenyl-methyl)-N-methyl-amino]-2-cyclo-propyl-6-methoxy-carbonylpyrimidine]	30%	70%	90%	40%	80%	100%	10%	20%	70%	0%	30%	100%
COC(=O)c1nc(C2CC2)nc(N(C)Cc2ccccc2F)c1Cl [Compound 5-64, 5-Chloro-2-cyclo-propyl-4-[N-(2-fluorophenylmethyl)-N-methyl]-6-methoxy-carbonylpyrimidine]	20%	90%	100%	80%	90%	100%	10%	10%	80%	20%	70%	70%
